Measurements reported in patent US4387059A, “Ureylenebis substituted (or unsubstituted) phenylene-carbonyl (or sulfonyl)-imino-1,3,5 or 6-naphthalene-trisulfonic acids and salts” (American Cyanamid Company, priority 1981, dated 1983).
Where a name gives a salt, the structure may show the parent alone.

Columns and labels:
[1] = literature reports; cited from earlier work
[2] = system: total hemolytic complement activity (human serum); conditions: in vitro and in vivo, Pathol. Biol. 25 (1977); cited from earlier work
complement system = conditions: Br. J. Exp. Pathol. 33: 327 (1952); cited from earlier work
human C1 = experiment: Test Code 026 (C1 inhibitor): ability of activated human C1 to destroy fluid phase human C2 in the presence of C4; type: biochemical; conditions: serial twofold dilution assay, higher well number indicates higher activity
From the text: (§1) An active inhibitor protects C2 from C1 and C4; (ii) Test Code 035 (C3-C9 inhibitor)--This test determines the ability of the late components of human complement (C3-C9) to lyse EAC 142 in the presence of appropriate dilutions of the test compound. An active inhibitor protects EAC 142 from lysis by human C3-C9; (iii) Test Code 036 (C-Shunt inhibitor)--In this test human erythrocytes rendered fragile are lysed in autologous serum via the shunt pathway activated by cobra venom factor in the presence of appropriate dilutions of the test compound. Inhibition of the shunt pathway results in failure of lysis; (iv) Cap 50 Test--Here, appropriate amounts of the test compound are added to a pool of guinea pig serum in vitro, after which the complement level is determined in undiluted serum by the serum capillary tube assay of U.S. Pat. No. 3,876,376. The concentration of compound inhibiting 50% is reported; and (v) Guinea Pig Intraperitoneal Test (GPIP)--Guinea pigs weighing about 300 g are dosed intraperitoneally (i.p.) with 200 mg/kg of the test compound dissolved in saline and adjusted to pH 7-8. […] Percent inhibition is calculated by comparison with simultaneous controls. […]

complement = experiment: in vivo complement inhibition in guinea pig (GPIP test), capillary complement assay of sera; conditions: Intravenous, i.p. 200 mg/kg
[3] = system: late components of human complement (C3-C9); experiment: Test Code 035 (C3-C9 inhibitor): lysis of EAC 142 by late components of human complement; type: cell-based; conditions: serial twofold dilution assay, higher well number indicates higher activity
From the text: as §1

shunt pathway = experiment: Test Code 036 (C-Shunt inhibitor): lysis of fragile human erythrocytes in autologous serum via shunt pathway activated by cobra venom factor; type: cell-based; conditions: serial twofold dilution assay, higher well number indicates higher activity
From the text: as §1

NCCCCCC(=O)O [epsilon-aminocaproic acid]
treatment of hereditary angioneurotic edema [1]: used with success in the treatment of hereditary angioneurotic edema

pentosanpolysulfoester
anticomplementary activity (reduction in total hemolytic complement activity) [2]: anticomplementary activity on human serum, both in vitro and in vivo

NC[C@H]1CC[C@H](C(=O)O)CC1 [tranexamic acid]
treatment of hereditary angioneurotic edema [1]: used with success in the treatment of hereditary angioneurotic edema

heparin
anti-complementary effect (complement system): anti-complementary effect

O=C(Nc1ccc(C(=O)Nc2ccc(C(=O)Nc3ccc(C(=O)Nc4cc(S(=O)(=O)O)cc5cc(S(=O)(=O)O)cc(S(=O)(=O)O)c45)c(S(=O)(=O)O)c3)c(S(=O)(=O)O)c2)c(S(=O)(=O)O)c1)Nc1ccc(C(=O)Nc2ccc(C(=O)Nc3ccc(C(=O)Nc4cc(S(=O)(=O)O)cc5cc(S(=O)(=O)O)cc(S(=O)(=O)O)c45)c(S(=O)(=O)O)c3)c(S(=O)(=O)O)c2)c(S(=O)(=O)O)c1 [8,8'-Ureylenebis[tris[(2-sulfo-p-phenylenecarbonyl)imino]]-di-1,3,6-naphthalenetrisulfonic acid, dodecasodium salt]
in vitro Activity C1 026* Wells (human C1): +5 Wells | in vivo Activity (Guinea Pig) % Inhibition (complement; Time 2 Minutes): 95% | in vivo Activity (Guinea Pig) % Inhibition (complement; Time 30 Minutes): 54% | in vivo Activity (Guinea Pig) % Inhibition (complement; Time 120 Minutes): 14% | in vitro Activity C-Late 035* Wells [3]: +2 Wells

Nc1ccc2cc(S(=O)(=O)[O-])cc(O)c2c1N=Nc1ccc(NC(=O)Nc2ccc(N=Nc3c(N)ccc4cc(S(=O)(=O)[O-])cc(O)c34)c(S(=O)(=O)[O-])c2)cc1S(=O)(=O)[O-].[Na+].[Na+].[Na+].[Na+] [chlorazol fast pink, 3,3'-ureylenebis[6-(2-amino-8-hydroxy-6-sulfo-1-naphthylazo)benzenesulfonic acid], tetrasodium salt]
anti-complementary effect (complement system): anti-complementary effect

O=C(Nc1cccc(S(=O)(=O)Nc2cccc(S(=O)(=O)Nc3cccc(S(=O)(=O)Nc4cc(S(=O)(=O)O)cc5cc(S(=O)(=O)O)cc(S(=O)(=O)O)c45)c3)c2)c1)Nc1cccc(S(=O)(=O)Nc2cccc(S(=O)(=O)Nc3cccc(S(=O)(=O)Nc4cc(S(=O)(=O)O)cc5cc(S(=O)(=O)O)cc(S(=O)(=O)O)c45)c3)c2)c1 [8,8'-[Ureylenebis[[[[[[[(m-phenylenesulfonyl)imino]-m-phenylene]sulfonyl]imino]-m-phenylene]sulfonyl]-imino]]-1,3,6-naphthalenetrisulfonic acid, hexasodium salt]
in vitro Activity C1 026* Wells (human C1): +4 Wells | in vitro Activity C-Shunt Inhibition 036* Wells (shunt pathway): +1 Wells | in vitro Activity C-Late 035* Wells [3]: +4 Wells
